Experimental data reported in ChEMBL document CHEMBL4422673, “Discovery, synthesis and characterization of a series of (1-alkyl-3-methyl-1H-pyrazol-5-yl)-2-(5-aryl-2H-tetrazol-2-yl)acetamides as novel GIRK1/2 potassium channel activators” (Bioorg Med Chem Lett, 2019).
Activity calls are given as the source filed them. No cut-off for these calls is given here.

Experiments:
[1] = target: Kir3.1/Kir3.4 (Homo sapiens) (UniProt P48549+P48544); assay: Activation of human GIRK1/4 expressed in HEK293 cells co-expressing rat mGlu8 by thallium flux assay relative to control; type: cell-based
Kir3.1/Kir3.2 = target: T1, Kir3.1/Kir3.2 (Homo sapiens, UniProt P48051+P48549); assay: Activation of human GIRK1/2 expressed in HEK293 cells co-expressing rat mGlu8 by thallium flux assay; type: cell-based
T1 sequence (P48549 whole entry): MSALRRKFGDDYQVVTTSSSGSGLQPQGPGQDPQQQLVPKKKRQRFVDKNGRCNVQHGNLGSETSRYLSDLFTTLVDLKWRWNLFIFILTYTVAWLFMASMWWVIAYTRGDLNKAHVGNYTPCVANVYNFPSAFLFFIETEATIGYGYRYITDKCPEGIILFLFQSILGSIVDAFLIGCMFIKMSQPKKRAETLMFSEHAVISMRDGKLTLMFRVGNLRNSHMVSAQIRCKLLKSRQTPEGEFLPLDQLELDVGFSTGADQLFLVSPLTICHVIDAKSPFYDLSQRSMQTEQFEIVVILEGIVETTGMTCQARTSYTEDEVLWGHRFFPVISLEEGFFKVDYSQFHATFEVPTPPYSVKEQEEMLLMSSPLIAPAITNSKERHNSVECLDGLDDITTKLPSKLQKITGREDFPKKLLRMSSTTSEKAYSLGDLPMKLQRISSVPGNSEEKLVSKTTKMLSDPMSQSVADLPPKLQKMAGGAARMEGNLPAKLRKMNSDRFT
T1 sequence (P48051 whole entry): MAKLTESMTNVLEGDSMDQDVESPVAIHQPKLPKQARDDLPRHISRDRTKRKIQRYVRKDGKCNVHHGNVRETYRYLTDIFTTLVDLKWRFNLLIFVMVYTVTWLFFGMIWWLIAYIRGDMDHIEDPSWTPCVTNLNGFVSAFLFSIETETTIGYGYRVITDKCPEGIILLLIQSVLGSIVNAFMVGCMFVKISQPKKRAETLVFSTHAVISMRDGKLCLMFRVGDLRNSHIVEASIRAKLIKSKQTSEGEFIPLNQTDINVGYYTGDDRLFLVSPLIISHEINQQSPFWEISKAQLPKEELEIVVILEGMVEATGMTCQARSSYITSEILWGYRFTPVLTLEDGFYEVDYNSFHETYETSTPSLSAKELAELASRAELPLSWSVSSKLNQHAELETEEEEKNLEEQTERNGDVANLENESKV

Kir3.1/Kir3.4 [2] = target: T2, Kir3.1/Kir3.4 (Homo sapiens, UniProt P48544+P48549); assay: (§1) Activation of human GIRK1/4 expressed in HEK293 cells co-expressing rat mGlu8 by thallium flux assay; type: cell-based
T2 sequence (P48549 whole entry): T1 sequence (P48549 whole entry)
T2 sequence (P48544 whole entry): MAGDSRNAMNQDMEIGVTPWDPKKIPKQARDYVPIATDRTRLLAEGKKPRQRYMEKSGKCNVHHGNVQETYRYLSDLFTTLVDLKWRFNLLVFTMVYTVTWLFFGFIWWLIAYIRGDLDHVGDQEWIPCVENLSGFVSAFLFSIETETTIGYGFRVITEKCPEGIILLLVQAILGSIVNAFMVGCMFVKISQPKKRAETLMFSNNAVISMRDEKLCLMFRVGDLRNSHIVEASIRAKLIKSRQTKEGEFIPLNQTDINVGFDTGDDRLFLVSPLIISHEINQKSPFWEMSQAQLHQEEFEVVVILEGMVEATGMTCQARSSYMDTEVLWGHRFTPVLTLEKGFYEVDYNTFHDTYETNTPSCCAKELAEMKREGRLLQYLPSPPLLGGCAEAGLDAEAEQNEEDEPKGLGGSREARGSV

[3] = Fraction unbound in human plasma; type: ADME, cell-free
[4] = Clearance in mouse liver microsomes
[5] = Clearance in human liver microsomes
[6] = Stability in mouse plasma; type: ADME, cell-free
[7] = target: Kir3.1/Kir3.2 (Homo sapiens) (UniProt P48549+P48051); assay: Activation of human GIRK1/2 expressed in HEK293 cells co-expressing rat mGlu8 by thallium flux assay relative to control; type: cell-based
Kir3.1/Kir3.4 [8] = target: T3, Kir3.1/Kir3.4 (Homo sapiens, UniProt P48549+P48544); assay: as §1; type: cell-based; settings: hek293
T3 sequence (P48549 whole entry): T1 sequence (P48549 whole entry)
T3 sequence (P48544 whole entry): T2 sequence (P48544 whole entry)

Row | Emax [1] | EC50 (Kir3.1/Kir3.2) [nM] | EC50 (Kir3.1/Kir3.4 [2]) [nM] | Fu [3] [%] | CLhep predicted [4] [mL/min/kg] | CLhep predicted [5] [mL/min/kg] | Stability [6] | Emax [7] [%] | EC50 (Kir3.1/Kir3.4 [8]) | Compound
1 | 58% | 176 | 283 | 0.3 | 88.7 | 20.4 | Unstable | 77 |  | Cc1cc(NC(=O)Cn2nnc(-c3ccccc3)n2)n(CC2CCCCC2)n1
2 | 57% | 183 | 850 |  |  |  |  | 86 |  | Cc1cc(NC(=O)Cn2nnc(-c3cccc(C(F)(F)F)c3)n2)n(C2CCCCC2)n1
3 | 20% | 1660 | 1820 |  |  |  |  | 69 |  | Cc1cc(NC(=O)Cc2ccc(-c3ccccc3)cc2)n(C2CCCCC2)n1
4 | 52% | 65 | 348 |  |  |  |  | 72 |  | Cc1cc(NC(=O)Cn2cc(-c3ccccc3)cn2)n(C2CCCCC2)n1
5 | inactive | 1520 |  |  |  |  |  | 36 | Not Active | Cc1cc(NC(=O)Cc2ccc(-c3ccccc3)cn2)n(C2CCCCC2)n1
6 | 51% | 980 | 2120 |  |  |  |  | 82 |  | Cc1cc(NC(=O)Cn2nnc(-c3cc(Cl)cc(Cl)c3)n2)n(C2CCCCC2)n1
7 | > 20% | > 5000 | > 10000 |  |  |  |  | > 69 |  | CCC(C)n1nc(C)cc1NC(=O)Cn1nnc(-c2ccccc2)n1 (stereo not drawn)
8 | 48% | 495 | 848 |  |  |  |  | 74 |  | Cc1cc(NC(=O)Cn2nnc(-c3ccccc3)n2)n(Cc2ccccc2)n1
9 | 27% | 631 | 1130 |  |  |  |  | 72 |  | Cc1cc(NC(=O)Cc2ncc(-c3ccccc3)o2)n(C2CCCCC2)n1
10 | > 18% | 1330 | > 3000 |  |  |  |  | 44 |  | Cc1cc(NC(=O)Cc2csc(-c3ccccc3)n2)n(C2CCCCC2)n1
11 | 74% | 180 | 634 |  |  |  |  | 92 |  | Cc1cc(NC(=O)Cn2nnc(-c3ccc(F)cc3)n2)n(C2CCCCC2)n1
12 | > 97% | > 6000 | > 10000 |  |  |  |  | > 105 |  | Cc1cc(NC(=O)Cn2nnc(-c3ccccc3)n2)n(CC(F)(F)F)n1
13 | 60% | 187 | 447 |  |  |  |  | 88 |  | Cc1cc(NC(=O)Cn2nnc(-c3ccccc3F)n2)n(C2CCCCC2)n1
14 | 11% | 4470 | 4350 |  |  |  |  | 49 |  | Cc1cc(NC(=O)Cc2ccc(-c3ccc(Cl)c(Cl)c3)cc2)n(C2CCCCC2)n1
15 | > 21% | > 3000 | > 10000 |  |  |  |  | > 60 |  | Cc1cc(NC(=O)Cc2nnc(-c3ccccc3)s2)n(C2CCCCC2)n1
16 | 25% | 3020 | 4090 |  |  |  |  | 66 |  | Cc1cc(NC(=O)Cn2nnc(-c3ccccc3)n2)n(-c2ccccc2)n1
17 | > 51% | 370 | > 4000 |  |  |  |  | 72 |  | Cc1cc(NC(=O)Cc2cccc(-c3ccccc3)c2)n(C2CCCCC2)n1
18 | 64% | 111 | 408 |  |  |  |  | 86 |  | Cc1ccc(-c2nnn(CC(=O)Nc3cc(C)nn3C3CCCCC3)n2)cc1
19 | 50% | 241 | 448 |  |  |  |  | 94 |  | Cc1cc(NC(=O)Cn2nnc(-c3ccc(C(F)(F)F)cc3)n2)n(C2CCCCC2)n1
20 | 40% | 117 | 299 |  |  |  |  | 76 |  | COc1cccc(-c2nnn(CC(=O)Nc3cc(C)nn3C3CCCCC3)n2)c1
21 | 84% | 163 | 612 |  |  |  |  | 105 |  | Cc1cc(NC(=O)Cn2nnc(-c3ccccc3)n2)n(C2CCCC2)n1
